This is an account of results in patent publication US6448378B2, “Compound delivery using rapidly dissolving collagen film” (priority 1998, dated 2002).

Molecules are shown by their SMILES.

For data set [1], the system named is human subconjunctival fibroblasts derived from Tenon's membrane. The note with it: freshly prepared 0.4 mg/ml solution, dissolved in USP sterile water.
Experimental: 6 mm diameter discs were cut from the film and applied to human subconjunctival fibroblasts derived from Tenon's membrane layered in 96 well plates (CSM supplemented with 10% fetal bovine serum). After 72 hours, mitomycin-induced inhibition of cell division was assessed by measuring the reduction in fluorescence intensity (RFU) using a fluorogenic CalceinAM assay (see, for example, Decherchi et al., J. Neurosci. Meth. 71: 205 (1997); Sugita, Pflitgers Arch. 429: 555 (1995); Padanilam et al., Ann. NY Acad. Sci. 720: 111 (1994); Lichtenfels et al., J. Immunol. Meth. 172: 227 (1994); and Wang et al., Human Immunol. 37: 264 (1993)).
The nature of data set [2]: HPLC analysis of mitomycin solution stability. The class given is physicochemical. The note with it: storage at ambient temperature and 4° C. in the dark. How it is done:
In contrast to the stability of mitomycin in the collagen film, HPLC analysis of the mitomycin solution determined that stability was maintained for only 4 days following storage at ambient temperature and 4° C. in the dark. Dissolution and storage in 0.9% saline or phosphate buffer (pH 7.4) is not recommended due to degradation and precipitation.

Consider `CO[C@@]12[C@H](COC(N)=O)C3=C(C(=O)C(C)=C(N)C3=O)N1C[C@@H]1N[C@@H]12` [mitomycin solution, mitomycin], for which the “% cell death inhibition relative to the values of the mitomycin-collagen films (91%, 90%, 92%)” value in data set [1] is “comparable”. Further, the “time for which stability of the solution was maintained (HPLC)” value in data set [2] came to 4 days.
